2 molecules from patent US20250339443A1, “METHOD FOR TREATING OR PREVENTING CALCIUM RELEASE-ACTIVATED CALCIUM CHANNEL OR DISCOIDIN DOMAIN RECEPTOR 2 RELATED DISORDERS OR CONDITIONS” (LumiSTAR Biotechnology, Inc., priority 2023, published 2025) can be followed below.

Assay [1] deals with T1, Stim1 or Orai1 puncta (Homo sapiens, UniProt Q96D31).
T1 construct: expressed in transfected cells; host or cells: HEK293T
As to the kind of experiment: Orai1 and Stim1 puncta in HEK293T cells overexpressing CFP-Orai1/Stim1-mCherry after thapsigargin. Particulars: 10 μM pretreatment 30 min, 1 μM thapsigargin 15 min. The assay is classed as cell-based. The procedure: FIG. 1A, FIG. 1B, FIG. 1C, FIG. 1D, FIG. 1E, FIG. 1F, FIG. 1G, FIG. 1H, FIG. 1I, FIG. 1J, FIG. 1K, FIG. 1L, FIG. 1M, and FIG. 1N show WRG-28 and atovaquone (Av) suppress the activation of DDR2 and calcium release-activated calcium (CRAC) channel. FIG. 1A indicates HEK293T cells were transiently overexpressed with DDR2 and then pretreated with different compounds (10 μM), including WRG-28, Av, donepezil hydrochloride (Dh), terazosin hydrochloride (Th), verapamil and flecainide for 30 minutes. Verapamil and flecainide were used as negative control here. After that, cells were treated with 50 μg/mL type I collagen for 12 hours. Cell lysates were harvested and subjected to Western blot analysis with antibodies against phosphotyrosine antibody (clone 4G10), DDR2, and β-actin. […] CRAC channel activity was evaluated by applying 1 μM thapsigargin (Thap.) in a calcium-free solution to deplete the endoplasmic reticulum calcium store, followed by the reintroduction of 2 mM Ca^2+ in an external solution. The concentration of cytosolic calcium ions increases as calcium flows through the CRAC channel, leading to the second peak in cytosolic calcium waves. […] Further analyses are presented in FIG. 1I and FIG. 1J, where the second peak of each wave and rate of entry were analyzed. […] The Orai1 and Stim1 puncta in HEK293T cells overexpressed with CFP-Orai1/Stim1-mCherry were assessed. […]

Assay [2] has as its system NRK49F cells. As to the kind of experiment: Collagen gel contraction assay. The assay is classed as cell-based, rat. Particulars: NRK49F in collagen gel, 10 ng/ml TGF-β1, 10 μM, 3 days, 8 hours after release. The procedure:
(§1) FIG. 2A, FIG. 2B, FIG. 2C, FIG. 2D, FIG. 2E, FIG. 2F, FIG. 2G-1, and FIG. 2G-2 display how WRG-28 and Av suppress TGF-β1-induced fibroblasts activation and the differentiation of pericytes into myofibroblasts. […] Each bar represents the mean #SEM. […] The protein levels of collagen 1a1 and α-SMA were assessed using Western blot analysis under various conditions. […] Each bar represents mean±SEM. […] The images were acquired using a confocal microscope (Olympus, MPE). FIG. 2G-1 and FIG. 2G-2 display the measurement of angles between collagen fibers and the cell membrane, conducted using Image J. At least five different images from each condition were analyzed. Each bar represents mean±SEM. In all graphs, *, **, and *** represent p-value <0.05, 0.01, and 0.001, respectively. ‘ns’ denotes p-value >0.05, indicating no significant difference.
The collagen gel was made by mixing 3 ml rat tail collagen (Corning), 1 ml 5.7×DMEM, 500 μl 2.5% NaHCO3, 1 ml 0.1 M HEPES, 100 μl 0.17 M CaCl2, 100 μl 1 N NaOH, and 4.3 ml culture medium containing 2×10^6 NRK49F cells. 2 ml medium with or without 10 ng/ml TGF-β1 was applied onto gel in each well of 6 well-plate and cells were incubated for 3 days. After that gels were released from the culture plate and the gel area was quantified by Image J. […]

Assay [3] relates to CCL-226 cells. As to the kind of experiment: TGF-β1-induced pericyte-to-myofibroblast activation (Western blot). The assay is classed as cell-based, mouse. Particulars: CCL-226, 10 μM, 24 hours. The procedure:
as §1, with “In all graphs, *, **, and *** represent p-value <0.05, 0.01, and 0.001, respectively. ‘ns’ denotes p-value >0.05, indicating no significant difference.” left out
(§2) Cell lysates were harvested in RIPA buffer (150 mM NaCl, 1 mM EGTA, 50 mM Tris pH 7.4, 10% glycerol, 1% Triton X-100, 1% sodium deoxycholate, 0.1% SDS, and protease inhibitor cocktail) and collected from culture dish with cell scrapers. […] The protein expression levels were assessed by specific primary antibodies, including antibodies against phosphotyrosine (clone 4G10; Millipore), DDR2 (R&D), α-SMA (Sigma), Collagen 1a1 (Boster), E-cadherin (BD Biosciences), SGLT2 (Proteintech), NHE1 (Novus) and β-actin (Clone C4, Millipore), followed by incubating with secondary antibodies conjugated with HRP and detected by ECL kit (Thermo Scientific). […]

The subject of assay [4] is NRK49F cells. As to the kind of experiment: TGF-β1-induced activation of renal fibroblasts (Western blot). Particulars: 10 μM, 24 hours. In kind it is cell-based, rat. The procedure:
as §1, with “In all graphs, *, **, and *** represent p-value <0.05, 0.01, and 0.001, respectively. ‘ns’ denotes p-value >0.05, indicating no significant difference.” left out
as §2
For orientation: In western blotting, separated proteins are transferred to a membrane and probed.

The structures appear in SMILES notation.

T1 sequence (Q96D31 whole entry): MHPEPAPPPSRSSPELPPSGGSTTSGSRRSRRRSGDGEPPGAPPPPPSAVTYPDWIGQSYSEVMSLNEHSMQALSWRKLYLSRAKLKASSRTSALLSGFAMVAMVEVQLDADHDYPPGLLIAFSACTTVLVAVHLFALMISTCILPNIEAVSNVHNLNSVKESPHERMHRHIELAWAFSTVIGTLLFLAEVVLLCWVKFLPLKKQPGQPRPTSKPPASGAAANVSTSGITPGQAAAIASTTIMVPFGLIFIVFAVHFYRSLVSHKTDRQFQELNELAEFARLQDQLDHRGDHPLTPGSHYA

For the molecule `Cc1nnsc1C(=O)Nc1ccc(-n2nc(C(F)(F)F)cc2C(F)(F)F)cc1` [BTP2], the “formation of Stim1 or Orai1 puncta induced by store depletion” value in assay [1] is on record as “unaffected”. In addition, the “gel shrinkage (relative gel area) upon TGF-β1 stimulation” value in assay [2] was “markedly reduced”. Moreover, the “TGF-β1-induced upregulation of collagen 1a1 and α-SMA in pericyte” value in assay [3] is reported as “significantly suppressed”. In addition, in assay [4], the “TGF-β1-induced upregulation of collagen 1a1 and α-SMA” value was “significantly suppressed”.
As to `CCNS(=O)(=O)c1ccc(COc2ccc3nc4ccc(=O)cc-4oc3c2)cc1` [WRG-28], the “formation of Stim1 or Orai1 puncta induced by store depletion” value in assay [1] is “unaffected”. For the same molecule, the “gel shrinkage (relative gel area) upon TGF-β1 stimulation” value in assay [2] was “markedly reduced”. Besides, the “TGF-β1-induced upregulation of collagen 1a1 and α-SMA in pericyte” value in assay [3] is on record as “significantly suppressed”. Moreover, in assay [4], the “TGF-β1-induced upregulation of collagen 1a1 and α-SMA” value is “significantly suppressed”.
